{"source": "patent EP0098141A2", "about": "“Prostaglandin D analogues, process for their preparation and compositions containing them” (ONO PHARMACEUTICAL CO., LTD., priority 1982, dated 1984)", "key": {"[1]": {"system": "cells originated from human mouth tumor (KB-cells)", "assay": "Inhibition of proliferation using cells originated from human mouth tumor (KB-cells)", "format": "cell-based", "conditions": "96 h, stationary culture at 37°C for 4 days, surviving cell number (Trypan Blue) relative to control", "experimental": "The test on the inhibition of proliferation of cells originated from human mouth tumor was conducted by a well known method. The cells originated from human mouth tumor (KB-cells) were added to Eagle's MEM culture solution containing 10% bovine fetal serum, the number of cells in the culture solution was adjusted to 1x10^5 cells/ml, a solution in ethanol of the test compound was added to give a concentration of […] and the mixture was subjected to stationary culture at 37°C for 4 days. As a control, a culture solution containing 0.1% of ethanol was similarly cultured. After the culture, the culture solutions were stained by the Trypan Blue staining method, and the surviving cell number was measured to determine the degree of inhibition relative to the control."}, "[2]": {"assay": "Acute toxicity by intraperitoneal administration in mice", "conditions": "mouse, in vivo, ip", "experimental": "The acute toxicity of the compounds of the present invention was more than 100 mg/kg by intraperitoneal administration in mice, so that the PGD analogues of the present invention may be considered to be sufficiently safe and suitable for medical use."}, "[3]": {"system": "human myelogenous leukemic cells (HL-60)", "assay": "Inhibition of proliferation using human myelogenous leukemic cells (HL-60)", "format": "cell-based", "conditions": "96 h, HL-60 cells, stationary culture at 37°C for 4 days, surviving cell number (Trypan Blue) relative to control", "experimental": "The test on the inhibition of proliferation of human myelogenous leukemic cells was conducted by a well known method. The human myelogenous leukemic cells (HL-60) were added to an RPMI culture solution containing 10% bovine fetal serum, the number of cells in the culture solution was adjusted to 1x10^5 cells/ml, a solution in ethanol of the test compound was added to give a concentration of 5µg/ml or 1 µg/ml, and the mixture was subjected to stationary culture at 37°C for 4 days. As a control, a culture solution containing 0.1% of ethanol was similarly cultured. The culture solutions were stained by the Trypan Blue staining method, and the surviving cell number was measured to determine the degree of inhibition relative to the control."}, "Ehrlich ascites tumor": {"system": "Ehrlich ascites tumor", "assay": "Prolongation of survival of mice inoculated with Ehrlich ascites tumor", "format": "in vivo", "set-up": "unit not given here", "conditions": "ICR mice inoculated intraperitoneally with Ehrlich ascites tumor cells (3 x 10^6/mouse) on day 0, 20 mg/kg/day intraperitoneally from day 1 to day 5", "experimental": "The test on the prolongation of survival of mice inoculated with Ehrlich ascites tumor was conducted by a well known method. ICR mice, weighing 25 - 30 g, were inoculated with Ehrlich ascites tumor cells (3 x 10^6/mouse) intraperitoneally on day 0. A test compound was administered to mice intraperitoneally at a dose of 20 mg/kg/day from day 1 to day 5. Throughout the experiments, each group consisted of six mice (eight mice in control group). The effects of the test compounds were judged by the prolongation of survival time in days. In the Table 2, T/C was calculated below. [formula]"}}, "data": [{"molecule": "CCCCC[C@H](O)/C=C/[C@H]1C(=O)C[C@H](O)[C@@H]1C/C=C\\CCCC(=O)CO", "note": "[Compound 1, 2-Decarboxy-2-glycoloyl-PGD2]", "values": [{"measurement": "inhibition at 1 µg/mL", "setting": "[1]", "result": 23.5, "unit": "%"}, {"measurement": "inhibition at 5 µg/mL", "setting": "[1]", "result": 100, "unit": "%"}, {"measurement": "LD50", "setting": "[2]", "result": 156, "unit": "mg/kg"}, {"measurement": "inhibition at 1 µg/mL", "setting": "[3]", "result": 20.4, "unit": "%"}, {"measurement": "inhibition at 5 µg/mL", "setting": "[3]", "result": 96.7, "unit": "%"}, {"measurement": "T/C", "setting": "Ehrlich ascites tumor", "result": 75.3}]}, {"molecule": "CCCCC[C@H](O)/C=C/[C@H]1C(=O)C=C[C@@H]1C/C=C\\CCCC(=O)CO", "note": "[Compound 2, 2-Decarboxy-2-glycoloyl-9-deoxy-Δ^9-PGD2]", "values": [{"measurement": "inhibition at 1 µg/mL", "setting": "[1]", "result": 90.9, "unit": "%"}, {"measurement": "inhibition at 5 µg/mL", "setting": "[1]", "result": 100, "unit": "%"}, {"measurement": "inhibition at 1 µg/mL", "setting": "[3]", "result": 100, "unit": "%"}, {"measurement": "inhibition at 5 µg/mL", "setting": "[3]", "result": 100, "unit": "%"}, {"measurement": "T/C", "setting": "Ehrlich ascites tumor", "result": 70.5}]}, {"molecule": "CCCCCC=CC=C1C(=O)C=CC1CC=CCCCC(=O)CO", "note": "(stereo not shown) [Compound 3, (5Z,9Z,14EZ)-1-Hydroxymethylprosta-5,9,12,14-tetraene-1,11-dione]", "values": [{"measurement": "inhibition at 1 µg/mL", "setting": "[1]", "result": 10.6, "unit": "%"}, {"measurement": "inhibition at 5 µg/mL", "setting": "[1]", "result": 100, "unit": "%"}, {"measurement": "inhibition at 1 µg/mL", "setting": "[3]", "result": 100, "unit": "%"}, {"measurement": "inhibition at 5 µg/mL", "setting": "[3]", "result": 100, "unit": "%"}, {"measurement": "T/C", "setting": "Ehrlich ascites tumor", "result": 244.6}]}, {"molecule": "CCCCC[C@H](O)/C=C/[C@H]1C(=O)C=C[C@@H]1C/C=C\\CCCC(=O)NS(C)(=O)=O", "note": "[Compound 4, 9-Deoxy-Δ^9-PGD2 methanesulfonylamide]", "values": [{"measurement": "inhibition at 1 µg/mL", "setting": "[1]", "result": 12.6, "unit": "%"}, {"measurement": "inhibition at 5 µg/mL", "setting": "[1]", "result": 25.5, "unit": "%"}, {"measurement": "inhibition at 1 µg/mL", "setting": "[3]", "result": 3.9, "unit": "%"}, {"measurement": "inhibition at 5 µg/mL", "setting": "[3]", "result": 1.5, "unit": "%"}]}, {"molecule": "CCCCCC=CC=C1C(=O)C=CC1CC=CCCCC(=O)NS(C)(=O)=O", "note": "(stereo not shown) [Compound 5, (5Z,9Z,14EZ)-N-Methanesulfonyl-11-oxoprosta-5,9,12,14-tetraen-1-amide]", "values": [{"measurement": "inhibition at 1 µg/mL", "setting": "[1]", "result": 0.9, "unit": "%"}, {"measurement": "inhibition at 5 µg/mL", "setting": "[1]", "result": 34.6, "unit": "%"}, {"measurement": "inhibition at 1 µg/mL", "setting": "[3]", "result": 0, "unit": "%"}, {"measurement": "inhibition at 5 µg/mL", "setting": "[3]", "result": 78.1, "unit": "%"}]}, {"molecule": "CCCCC[C@H](O)/C=C/[C@H]1C(=O)C[C@H](O)[C@@H]1C/C=C\\CCCC(=O)N(C)C", "note": "[Compound 6, (SZ,13E)-(9a,15S)-N,N-Dimethyl-9,15-dihydroxy-11-oxoprosta-5,13-dien-1-amide]", "values": [{"measurement": "inhibition at 1 µg/mL", "setting": "[1]", "result": 19.6, "unit": "%"}, {"measurement": "inhibition at 5 µg/mL", "setting": "[1]", "result": 100, "unit": "%"}, {"measurement": "inhibition at 1 µg/mL", "setting": "[3]", "result": 9.9, "unit": "%"}, {"measurement": "inhibition at 5 µg/mL", "setting": "[3]", "result": 99.1, "unit": "%"}]}, {"molecule": "CCCCC[C@H](O)/C=C/[C@H]1C(=O)C=C[C@@H]1C/C=C\\CCCC(=O)N(C)C", "note": "[Compound 7, (5Z,9Z,13E)-(15S)-N,N-Dimethyl-11-oxo-15-hydroxyprosta-5,9,13-trien-l-amide]", "values": [{"measurement": "inhibition at 1 µg/mL", "setting": "[1]", "result": 23.7, "unit": "%"}, {"measurement": "inhibition at 5 µg/mL", "setting": "[1]", "result": 100, "unit": "%"}, {"measurement": "inhibition at 1 µg/mL", "setting": "[3]", "result": 41.8, "unit": "%"}, {"measurement": "inhibition at 5 µg/mL", "setting": "[3]", "result": 100, "unit": "%"}]}, {"molecule": "CCCCCC=CC=C1C(=O)C=CC1CC=CCCCC(=O)N(C)C", "note": "(stereo not shown) [Compound 8, (5Z,9Z,14EZ)-N,N-Dimethyl-11-oxoprosta-5,9,12,14-tetraen-1-amide]", "values": [{"measurement": "inhibition at 1 µg/mL", "setting": "[1]", "result": 9.5, "unit": "%"}, {"measurement": "inhibition at 5 µg/mL", "setting": "[1]", "result": 100, "unit": "%"}, {"measurement": "inhibition at 1 µg/mL", "setting": "[3]", "result": 30.9, "unit": "%"}, {"measurement": "inhibition at 5 µg/mL", "setting": "[3]", "result": 100, "unit": "%"}]}, {"molecule": "CCCCC[C@H](O)/C=C/[C@H]1C(=O)C[C@H](O)[C@@H]1C/C=C\\CCCC(N)=O", "note": "[Compound 9, (5Z,13E)-(9α,15S)-9,15-Dihydroxy-11-oxoprosta-5,13-dien-1-amide]", "values": [{"measurement": "inhibition at 1 µg/mL", "setting": "[1]", "result": 2.8, "unit": "%"}, {"measurement": "inhibition at 5 µg/mL", "setting": "[1]", "result": 98.8, "unit": "%"}, {"measurement": "inhibition at 1 µg/mL", "setting": "[3]", "result": 21.5, "unit": "%"}, {"measurement": "inhibition at 5 µg/mL", "setting": "[3]", "result": 97.8, "unit": "%"}]}, {"molecule": "CCCCC[C@H](O)/C=C/[C@H]1C(=O)C=C[C@@H]1C/C=C\\CCCC(N)=O", "note": "[Compound 10, (52,9Z,13E)-(15S)-11-Oxo-15-hydroxyprosta-5,9,13-trien-1-amide]", "values": [{"measurement": "inhibition at 1 µg/mL", "setting": "[1]", "result": 15.4, "unit": "%"}, {"measurement": "inhibition at 5 µg/mL", "setting": "[1]", "result": 100, "unit": "%"}, {"measurement": "LD50", "setting": "[2]", "result": 167, "unit": "mg/kg"}]}, {"molecule": "CCCCCC=CC=C1C(=O)C=CC1CC=CCCCC(N)=O", "note": "(stereo not shown) [Compound 11, (5Z,9Z,14EZ)-11-Oxoprosta-5,9,12,14-tetraen-1-amide]", "values": [{"measurement": "inhibition at 1 µg/mL", "setting": "[1]", "result": 0.9, "unit": "%"}, {"measurement": "inhibition at 5 µg/mL", "setting": "[1]", "result": 100, "unit": "%"}, {"measurement": "T/C", "setting": "Ehrlich ascites tumor", "result": 155.6}]}]}
